# Experimental data from PMC8851638 (ACS Omega, 2022).
# Several values for one entry are separate records, joined by “and”; a condition that tells them apart may be missing. Identical values can stand only once.
# Columns and labels:
# C. albicans100 [1] = assay: Time-kill kinetic assay; format: cell-based, Candida albicans
# [2] = tested on: C. albicans200 (MDR00200); assay: Agar well-diffusion antimicrobial sensitivity assay; format: cell-based, Candida albicans; conditions: Candida albicans, read-out: Inhibition Zone (IZ)
# C. albicans200 [3] = assay: Single-step resistance selection; format: cell-based, Candida albicans; conditions: 4 × MIC, 48 h
# RBCs = assay: Hemolytic assay; format: cell-based; conditions: human RBCs; compounds 1.0 mg/mL; Triton X-100 0.1% v/v; 37 °C, 35 min
# [4] = tested on: C. albicans200 (MDR00200); assay: MIC and MFC by broth microdilution; format: cell-based, Candida albicans
# [5] = tested on: clinical pathogenic isolates; assay: Single-step resistance selection, whole panel; format: cell-based; conditions: 4 × MIC
# C. albicans200 [6] = assay: Time-kill kinetic assay; format: cell-based, Candida albicans
# [7] = tested on: C. albicans100 (MDR00100); assay: MIC and MFC by broth microdilution; format: cell-based, Candida albicans
# [8] = tested on: C. albicans100 (MDR00100); assay: Agar well-diffusion antimicrobial sensitivity assay; format: cell-based, Candida albicans; conditions: Candida albicans, read-out: Inhibition Zone (IZ)
# C. albicans100 [9] = assay: Single-step resistance selection; format: cell-based, Candida albicans; conditions: 4 × MIC, 48 h
smiles,measurement,setting,value
"CC(=O)N1CCN(c2ccc(OCC3COC(Cn4ccnc4)(c4ccc(Cl)cc4Cl)O3)cc2)CC1 (stereo not shown) [KCA, Ketoconazole, reference compound]",time of reduction in the colony-forming units,C. albicans100 [1],48 h
same,zone of inhibition at 100000 µg/mL,[2],24 ± 0.54 mm
same,Single-step resistance frequency (mutation frequency),C. albicans200 [3],3.19 × 10^–8
same,%lysis of RBCs,RBCs,15.38% and 15.38 ± 0.32%
same,MFC/MIC,"[4]; C. albicans200, ratio in parentheses",0.5
same,MIC,"[4]; Candida albicans, read-out: MIC (mean ± SEM), C. albicans200, broth microdilution",0.45 ± 0.3 µg/mL
same,"mutation frequency, range over panel",[5],3.19 × 10^–8 to 3.42 × 10^–9
same,time of reduction in the colony-forming units,C. albicans200 [6],48 h
same,MIC (mean ± SEM),"[7]; C. albicans100, broth microdilution",0.49 ± 0.3 µg/mL
same,MFC/MIC,"[7]; C. albicans100, ratio in parentheses",1
same,MIC,"[7]; Candida albicans, read-out: MIC (mean ± SEM), C. albicans100, broth microdilution",0.49 µg/mL
same,zone of inhibition at 100000 µg/mL,[8],21 ± 0.23 mm
same,Single-step resistance frequency (mutation frequency),C. albicans100 [9],3.42 × 10^–9
